In ChEMBL document CHEMBL3507680, “University of Dundee, Gates Library screen for HepG2 cell viability”:

Assay: Human HepG2 cell viability assay in 384 well format
Assay type: toxicity, cell-based
Set-up: dose 125 nL, time 70.5 hour; cytotoxicity at 70.5 h: concentration not given beside the values
Settings: HepG2 cells, read-out: Inhibition

Row | Structure (SMILES) | cytotoxicity at 70.5 h [%]
1 | Cn1cccc1C(=O)N1CCC2(CC1)CN(c1ccccn1)CCO2 | -5.53
2 | CCOCCNC(=O)C(CCSC)NC(=O)c1ccc2ccccc2n1 (configuration not stated) | 5.06
3 | COc1ccc(C(=O)NCC2CCCN(C3CCOCC3)C2)c(O)c1 (configuration not stated) | 23.3
4 | FC(F)(F)Oc1cccc(CNCc2ccc(-n3cncn3)nc2)c1 | 26.6
5 | CN(Cc1nc(-c2ccccc2)no1)Cc1cnc(N2CCOCC2)s1 | 1.48
6 | CC(=O)N(C)CCCc1cc(-c2ccccc2)no1 | -4.09
7 | CN(C)c1ncc2c(n1)C1(CCN(Cc3cccnc3)C1)COC2 (configuration not stated) | 4.89
8 | COCCC(=O)N1C[C@@H]2COC[C@]2(COCc2cccnc2)C1 | -13.6
9 | CC(C)c1ccc(-n2ncc(C(=O)NCC3COC(C)(C)O3)c2N)cc1 (configuration not stated) | 26.2
10 | Cc1ncc(CN2CCOC(c3ccc(-c4cc[nH]n4)cn3)C2)s1 (configuration not stated) | -2.9
11 | Cc1cccc(-c2noc(CN3CCCC(Cn4cncn4)C3)n2)c1 (configuration not stated) | 35.6
12 | CC1(C(N)=O)CN(CC2CCOCC2)CCO1 (configuration not stated) | 53.2
13 | O=S(=O)(NC[C@]12COC[C@H]1CN(c1ncc(F)cn1)C2)C1CC1 | 19.1
14 | Cc1nn(C)c(C)c1OCC(=O)N1CCCc2c(F)ccc(F)c21 | 18.1
15 | COc1ccc(CNCc2c(C(C)C)nn(C)c2N(C)C)cn1 | 0.065
16 | NC(=O)c1c(-c2ccc(Cl)cc2Cl)csc1NC(=O)CCC(=O)O | 20.5
17 | CC(CNc1nccc(C(C)C)n1)Oc1cccnc1 (configuration not stated) | -6.89
18 | COc1ccnc(N2CCN(Cc3nc(-c4ccoc4)no3)CC2)c1 | -0.129
19 | CC(NC(=O)N1CCC(n2cncn2)CC1)c1ccc(F)cc1F (configuration not stated) | -13.6
20 | CN(C)C(=O)CN1CCC(c2nnc(Cn3cccn3)n2C2CC2)CC1 | -12
21 | O=C(c1ccncc1)N1CCC(c2nc(O)cc(-c3ccncc3)n2)C1 (configuration not stated) | -12.6

Row | Structure (SMILES) | cytotoxicity at 70.5 h [%]
22 | CCc1nc(N2CCN(Cc3ncccc3C)CC2)c2cnn(C)c2n1 | -4.75
23 | CN(C)c1ccc(CC2CCCN(c3cnccn3)C2)nn1 (configuration not stated) | -6.12
24 | Cc1csc(C2CCCCN2C(=O)CN(C)C2CC2)n1 (configuration not stated) | -8.97
25 | Cc1ccc2c(n1)N(CCN(C)C)CCN(C(=O)c1cccs1)C2 | -5.81
26 | CN(Cc1nccs1)C1CCN(c2ncccn2)CC1 | -8.38
27 | CCOc1cc(C(=O)O)cc(-c2ccccc2)c1OC | -1.01
28 | COc1cc(NC(=O)CCn2nc(-c3cccs3)oc2=O)cc(OC)c1 | -7.55
29 | CCn1nc(C)cc1C(=O)N1CCOc2ccc(OC)cc21 | -4.62
30 | CCOc1ccc(Cl)cc1C(C(=O)O)N1CCC(CO)CC1 (configuration not stated) | 0.285
31 | CC(C)n1ccnc1CN1CCOC(CCc2ccccc2)C1 (configuration not stated) | -13.7
32 | CCN1CCN(C(=O)C(C)SC)CC1 (configuration not stated) | -6.96
33 | COCc1ncc(CN2CC[C@@H](NC(=O)c3cccnc3)[C@H](O)C2)cn1 | 20.2
34 | CC(Cn1ccnc1)NC(=O)NCCc1ccccn1 (configuration not stated) | -0.19
35 | COC(=O)CNC(=O)C(C(C)C)n1cnc2cc(F)c(F)cc21 (configuration not stated) | 5.81
36 | CCN1CC(C(=O)NCc2nc(C3CCCCC3)no2)CC1=O (configuration not stated) | 5.22
37 | COc1ccc(NC(C)C(=O)N2CCN(c3ccccc3)CC2)cn1 (configuration not stated) | -3.71
38 | COCCN(Cc1sccc1C)C(=O)COc1ccccc1O | -4.7
39 | CC(Cn1ccnc1)NC(=O)NCCN1CCc2ccccc2C1 (configuration not stated) | 0.814
40 | CC(C(=O)N1CCCN(c2ncccc2C#N)CC1)n1cccn1 (configuration not stated) | -9.79
41 | O=C(c1ccc(=O)[nH]c1)N1CCCC1c1nc2cc(F)ccc2[nH]1 (configuration not stated) | -3.97
42 | Cc1ccc(CNC2CCCc3c2cnn3C)s1 (configuration not stated) | -4.42

Row | Structure (SMILES) | cytotoxicity at 70.5 h [%]
43 | CCc1nn(C)c(Cl)c1CN1CCC2(C1)CN(C)C(=O)O2 (configuration not stated) | -17.2
44 | CC(=O)NCC(=O)N(CCc1ccccc1)C1CCOC1 (configuration not stated) | -9.4
45 | COc1ccc(S(=O)(=O)N[C@H]2CN(C(C)=O)C[C@@H]2C(C)C)cc1F | -12.5
46 | CCOCC1CN(Cc2ccco2)Cc2nccn2C1 (configuration not stated) | 3.52
47 | O=C(NC[C@]12COC[C@H]1CN(Cc1nccs1)C2)c1ccsc1 | -3.53
48 | CNC(=O)CN1CCC(NC(=O)C(C)Oc2ccccc2C#N)CC1 (configuration not stated) | -3.18
49 | CCn1cnnc1C1CCN(C(=O)c2cnc(C)s2)CC1 | -12.3
50 | CC(C)CNC(=O)NC(=O)CNc1ccccc1SCC(C)C#N (configuration not stated) | -2.52
51 | CC(C)OCCC(=O)Nc1cccc(N2CCN(CC3CC3)CC2)c1 | -4.83
52 | Cc1ccc(CN(Cc2[nH]cnc2C)C2CC(C)(C)NC(C)(C)C2)o1 | 17.5
53 | COCCN1CCC2(CC1)CN(Cc1cccc(C)n1)C(=O)CO2 | 0.221
54 | COc1ccc(-n2ccc(CNCc3ccc(OC)c(O)c3)n2)cc1 | 2.11
55 | N#Cc1ccccc1CN1C[C@@H]2CC[C@H](C1)N(CC1CC1)C2=O | -7.57
56 | O=C1COC2(CCN(c3ncccn3)CC2)CN1Cc1ccccn1 | -5.98
57 | CCOCCn1c(=O)n(Cc2ccccc2F)c2cc(C(=O)O)cnc21 | 11.9
58 | CCS(=O)(=O)N1CCCC2(CCCN2Cc2cccc(F)c2)C1 (configuration not stated) | -8.06
59 | COc1ccc(C(=O)C2CCCN(Cc3cccc(F)c3)C2)c(OC)c1 (configuration not stated) | -0.757
60 | CCN(C)[C@H]1CN(C(=O)c2cccc(N3CCS(=O)(=O)CC3)c2)C[C@@H]1O | -7.37
61 | O=C(CN1CCCCC1)Nc1cc(C(F)(F)F)ccc1-n1cccc1 | -9.88
62 | Cc1n[nH]c(CCC(=O)N2CCOC(Cc3ccc(F)cc3)C2)c1C (configuration not stated) | 10.5
63 | O=C(NCCO)C1CN(c2cncnc2)CCO1 (configuration not stated) | -8.3

Row | Structure (SMILES) | cytotoxicity at 70.5 h [%]
64 | O=C(Cn1cc(-c2ccccc2)cn1)N1CCNC1=O | -21.6
65 | Cn1cc(N2CC3(CCN(Cc4cccnc4)CC3)OCC2=O)cn1 | -3.89
66 | O=C(NCc1ccccc1)N1CCn2c(Cn3cccn3)cnc2C1 | -2.08
67 | CC(C)NC(=O)C1(Cc2ccccc2-c2cccs2)CCNC1 (configuration not stated) | -3.31
68 | CN1CCC2(CC1)CN(C(=O)c1cccnc1)Cc1ccccc12 | 9.45
69 | Cc1cc(C)cc(C(C)NCc2nnc(C)s2)c1 (configuration not stated) | -12
70 | Cc1n[nH]c(C2CN(C(=O)COCC(F)(F)F)CCO2)n1 (configuration not stated) | -5.9
71 | CCc1cnc(N2CCC3(CC2)CCN(c2cnn(C)c2)C3=O)nc1 | 31.2
72 | Cc1ccc(NC(=O)NCC2(O)CCCC2)cc1C | -1.58
73 | Cc1cc(C)nc(NC(=O)NCCCSc2nncn2C)n1 | -8.45
74 | O=c1[nH]c2c(c(=O)n1C1CCCCC1)CCC2Nc1ccccn1 (configuration not stated) | 20.1
75 | CC(C)c1nc(CN(C)C2CCN(CCn3cc(C#N)cn3)C2)no1 (configuration not stated) | -14.7
76 | CCN(C)c1ncnc2c1CCN(Cc1csc(C)n1)CC2 | -12.4
77 | CNc1cccc(C2CCN(C(=O)c3cccnc3)CC2)n1 | -5.08
78 | O=C(Cc1ccncc1)N1C[C@@H]2CC[C@H](C1)N(Cc1ccccc1)C2=O | -3.45
79 | CC(C)c1nnc(CCC(=O)N2CCOC(c3cnccn3)C2)o1 (configuration not stated) | -5.45
80 | COCC(=O)N1CCC(C(=O)N(C)CCCc2nccn2C)CC1 | 1.13
81 | COc1ccc(C)c(NC(=O)NCc2ncnn2C)c1 | 3.43
82 | O=C(C1CCOC1)N1CC[C@@H](O)[C@@H]1Cc1ccccc1 (some centres not stated) | -12.1
